Where two headings read alike, the source gives them in different places.
Columns and labels:
SMYD2 = SMYD2 (Homo sapiens, UniProt Q9NRG4); assay: Methyltransferase inhibition panel: SMYD2; format: biochemical
Description: (§1) The ability of ETP69 to inhibit methyltransferases was tested.

SET8 = biological target: T1, SET8 (Homo sapiens, UniProt Q9NQR1); assay: Methyltransferase inhibition panel: SET8; format: biochemical
T1 sequence (Q9NQR1 1-393): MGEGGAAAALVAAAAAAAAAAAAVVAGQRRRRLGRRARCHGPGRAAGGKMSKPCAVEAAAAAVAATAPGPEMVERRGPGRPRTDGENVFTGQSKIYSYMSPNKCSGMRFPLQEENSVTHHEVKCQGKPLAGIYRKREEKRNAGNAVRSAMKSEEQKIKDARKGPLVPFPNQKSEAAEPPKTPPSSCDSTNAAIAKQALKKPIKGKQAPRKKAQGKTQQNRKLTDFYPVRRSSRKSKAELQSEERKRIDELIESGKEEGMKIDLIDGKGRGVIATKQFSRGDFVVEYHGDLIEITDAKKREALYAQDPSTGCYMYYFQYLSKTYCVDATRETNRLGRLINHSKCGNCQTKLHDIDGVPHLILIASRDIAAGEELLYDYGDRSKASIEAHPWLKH
Description: as §1

DNMT3a = DNMT3a (Homo sapiens, UniProt Q9Y6K1); assay: Methyltransferase inhibition panel: DNMT3a; format: biochemical; settings: NT1721 20 μM; substrate Lambda DNA 0.0075 mg/mL
Description: as §1

PRMT6 = PRMT6 (Homo sapiens, UniProt Q96LA8); assay: Methyltransferase inhibition panel: PRMT6; format: biochemical; settings: NT1721 20 μM, substrate GST-GAR 5 μM
Description: as §1

SET1b Complex = SET1b Complex (Homo sapiens, UniProt Q9UPS6); assay: Methyltransferase inhibition panel: SET1b Complex; format: biochemical
Description: as §1

DNMT3b/3L = DNMT3b/3L (Homo sapiens, UniProt Q9UBC3); assay: Methyltransferase inhibition panel: DNMT3b/3L; format: biochemical
Description: as §1

NSD3 = biological target: T2, NSD3 (Homo sapiens, UniProt Q9BZ95); assay: Methyltransferase inhibition panel: NSD3; format: biochemical
T2 sequence (Q9BZ95 1-1437): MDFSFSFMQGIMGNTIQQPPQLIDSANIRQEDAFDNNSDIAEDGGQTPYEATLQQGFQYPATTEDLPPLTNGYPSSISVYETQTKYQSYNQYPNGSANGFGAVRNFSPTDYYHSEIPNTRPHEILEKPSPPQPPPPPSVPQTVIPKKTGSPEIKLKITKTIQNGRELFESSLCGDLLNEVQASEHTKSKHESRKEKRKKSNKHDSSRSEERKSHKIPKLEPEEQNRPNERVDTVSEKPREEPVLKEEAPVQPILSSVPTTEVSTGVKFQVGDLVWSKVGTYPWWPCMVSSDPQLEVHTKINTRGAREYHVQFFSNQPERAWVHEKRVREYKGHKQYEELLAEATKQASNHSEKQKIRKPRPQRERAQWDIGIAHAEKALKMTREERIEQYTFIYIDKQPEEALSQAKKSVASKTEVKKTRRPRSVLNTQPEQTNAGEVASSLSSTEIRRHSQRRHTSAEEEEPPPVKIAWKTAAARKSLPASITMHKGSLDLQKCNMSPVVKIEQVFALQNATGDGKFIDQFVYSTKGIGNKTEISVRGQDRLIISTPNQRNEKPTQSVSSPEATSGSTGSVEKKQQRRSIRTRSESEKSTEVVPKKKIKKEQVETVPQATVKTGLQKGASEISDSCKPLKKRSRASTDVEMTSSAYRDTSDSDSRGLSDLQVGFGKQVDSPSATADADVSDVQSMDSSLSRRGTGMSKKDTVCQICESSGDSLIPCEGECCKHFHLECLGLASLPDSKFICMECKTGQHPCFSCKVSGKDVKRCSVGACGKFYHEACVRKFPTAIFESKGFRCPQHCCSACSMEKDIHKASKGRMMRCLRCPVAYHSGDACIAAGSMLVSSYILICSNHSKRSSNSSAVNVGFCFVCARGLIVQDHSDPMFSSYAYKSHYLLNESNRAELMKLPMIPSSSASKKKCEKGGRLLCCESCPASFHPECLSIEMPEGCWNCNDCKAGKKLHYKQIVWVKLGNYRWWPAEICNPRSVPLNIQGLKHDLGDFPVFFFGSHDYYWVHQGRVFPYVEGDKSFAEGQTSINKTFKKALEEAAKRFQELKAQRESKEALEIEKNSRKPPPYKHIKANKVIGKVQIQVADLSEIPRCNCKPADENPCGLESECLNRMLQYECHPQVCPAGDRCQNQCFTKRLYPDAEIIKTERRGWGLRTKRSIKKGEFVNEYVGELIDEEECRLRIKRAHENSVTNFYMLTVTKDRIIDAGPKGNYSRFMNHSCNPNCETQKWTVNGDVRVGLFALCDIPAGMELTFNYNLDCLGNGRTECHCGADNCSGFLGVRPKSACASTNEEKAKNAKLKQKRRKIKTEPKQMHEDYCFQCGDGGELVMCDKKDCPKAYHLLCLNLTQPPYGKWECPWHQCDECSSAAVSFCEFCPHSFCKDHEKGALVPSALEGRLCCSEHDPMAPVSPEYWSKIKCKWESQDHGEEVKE
Description: as §1

NSD1 = NSD1 (Homo sapiens, UniProt Q96L73); assay: Methyltransferase inhibition panel: NSD1; format: biochemical
Description: as §1

6E10 = 6E10 staining of brain sections; format: in vivo; settings: AD+ mice; 4 and 15 days
Description: ETP69 administration reduced AD-related brain pathology (FIGS. 9A-9C). Brain sections were stained for H3K9me3, 6E10 and GFAP.

PSD95 = PSD95 irradiance in brain; design: species or system mice; settings: mouse, in vivo
[1] = read-out: Enzyme % Activity (relative to DMSO controls) Data 1
[2] = read-out: Enzyme % Activity (relative to DMSO controls) Data 2
[3] = NT1721 20 μM, substrate Nucleosomes 0.05 mg/mL

SMYD2, sequence (Q9NRG4 whole entry): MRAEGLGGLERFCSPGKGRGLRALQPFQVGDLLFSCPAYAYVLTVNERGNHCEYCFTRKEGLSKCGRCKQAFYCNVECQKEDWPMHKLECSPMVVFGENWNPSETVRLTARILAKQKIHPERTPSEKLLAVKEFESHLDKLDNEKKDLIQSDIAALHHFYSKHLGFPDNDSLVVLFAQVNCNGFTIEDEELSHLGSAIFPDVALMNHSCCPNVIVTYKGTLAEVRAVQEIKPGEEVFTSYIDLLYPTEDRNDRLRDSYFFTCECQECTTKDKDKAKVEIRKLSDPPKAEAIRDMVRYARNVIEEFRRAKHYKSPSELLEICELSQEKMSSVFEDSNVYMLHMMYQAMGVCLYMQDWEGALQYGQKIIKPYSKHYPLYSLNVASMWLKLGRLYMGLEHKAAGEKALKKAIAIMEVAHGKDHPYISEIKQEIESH
SET1b Complex, sequence (Q15291 whole entry): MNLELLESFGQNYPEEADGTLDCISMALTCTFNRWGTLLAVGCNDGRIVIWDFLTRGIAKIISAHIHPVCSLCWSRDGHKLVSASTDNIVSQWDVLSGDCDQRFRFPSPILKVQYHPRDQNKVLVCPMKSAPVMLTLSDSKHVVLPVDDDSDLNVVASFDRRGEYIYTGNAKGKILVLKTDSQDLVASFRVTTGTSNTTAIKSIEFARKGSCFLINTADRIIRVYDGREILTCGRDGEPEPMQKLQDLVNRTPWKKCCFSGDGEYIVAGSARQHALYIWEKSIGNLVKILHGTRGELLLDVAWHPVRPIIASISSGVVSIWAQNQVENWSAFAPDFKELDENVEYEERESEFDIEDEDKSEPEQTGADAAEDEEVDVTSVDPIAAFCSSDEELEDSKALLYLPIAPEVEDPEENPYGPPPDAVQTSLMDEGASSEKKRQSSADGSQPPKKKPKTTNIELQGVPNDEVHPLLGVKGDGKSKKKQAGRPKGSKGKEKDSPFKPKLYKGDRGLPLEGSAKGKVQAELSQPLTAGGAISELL
SET1b Complex, sequence (Q9UBL3 whole entry, further chain): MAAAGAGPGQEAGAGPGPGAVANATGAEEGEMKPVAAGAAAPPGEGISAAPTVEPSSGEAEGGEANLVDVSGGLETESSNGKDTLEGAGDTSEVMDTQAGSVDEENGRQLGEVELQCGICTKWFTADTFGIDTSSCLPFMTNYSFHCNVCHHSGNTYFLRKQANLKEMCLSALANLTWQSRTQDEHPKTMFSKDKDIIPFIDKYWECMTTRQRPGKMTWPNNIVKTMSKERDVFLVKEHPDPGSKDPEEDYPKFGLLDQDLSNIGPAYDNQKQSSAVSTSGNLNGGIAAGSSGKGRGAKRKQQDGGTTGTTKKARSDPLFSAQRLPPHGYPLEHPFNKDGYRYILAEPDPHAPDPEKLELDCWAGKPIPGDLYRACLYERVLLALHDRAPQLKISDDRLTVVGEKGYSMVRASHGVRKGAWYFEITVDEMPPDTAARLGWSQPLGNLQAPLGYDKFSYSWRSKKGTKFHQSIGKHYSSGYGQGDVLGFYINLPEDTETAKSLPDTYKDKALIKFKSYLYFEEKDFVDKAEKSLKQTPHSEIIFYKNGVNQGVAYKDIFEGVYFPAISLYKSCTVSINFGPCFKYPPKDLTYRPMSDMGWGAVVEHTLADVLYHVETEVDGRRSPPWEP
SET1b Complex, sequence (Q9UPS6 whole entry): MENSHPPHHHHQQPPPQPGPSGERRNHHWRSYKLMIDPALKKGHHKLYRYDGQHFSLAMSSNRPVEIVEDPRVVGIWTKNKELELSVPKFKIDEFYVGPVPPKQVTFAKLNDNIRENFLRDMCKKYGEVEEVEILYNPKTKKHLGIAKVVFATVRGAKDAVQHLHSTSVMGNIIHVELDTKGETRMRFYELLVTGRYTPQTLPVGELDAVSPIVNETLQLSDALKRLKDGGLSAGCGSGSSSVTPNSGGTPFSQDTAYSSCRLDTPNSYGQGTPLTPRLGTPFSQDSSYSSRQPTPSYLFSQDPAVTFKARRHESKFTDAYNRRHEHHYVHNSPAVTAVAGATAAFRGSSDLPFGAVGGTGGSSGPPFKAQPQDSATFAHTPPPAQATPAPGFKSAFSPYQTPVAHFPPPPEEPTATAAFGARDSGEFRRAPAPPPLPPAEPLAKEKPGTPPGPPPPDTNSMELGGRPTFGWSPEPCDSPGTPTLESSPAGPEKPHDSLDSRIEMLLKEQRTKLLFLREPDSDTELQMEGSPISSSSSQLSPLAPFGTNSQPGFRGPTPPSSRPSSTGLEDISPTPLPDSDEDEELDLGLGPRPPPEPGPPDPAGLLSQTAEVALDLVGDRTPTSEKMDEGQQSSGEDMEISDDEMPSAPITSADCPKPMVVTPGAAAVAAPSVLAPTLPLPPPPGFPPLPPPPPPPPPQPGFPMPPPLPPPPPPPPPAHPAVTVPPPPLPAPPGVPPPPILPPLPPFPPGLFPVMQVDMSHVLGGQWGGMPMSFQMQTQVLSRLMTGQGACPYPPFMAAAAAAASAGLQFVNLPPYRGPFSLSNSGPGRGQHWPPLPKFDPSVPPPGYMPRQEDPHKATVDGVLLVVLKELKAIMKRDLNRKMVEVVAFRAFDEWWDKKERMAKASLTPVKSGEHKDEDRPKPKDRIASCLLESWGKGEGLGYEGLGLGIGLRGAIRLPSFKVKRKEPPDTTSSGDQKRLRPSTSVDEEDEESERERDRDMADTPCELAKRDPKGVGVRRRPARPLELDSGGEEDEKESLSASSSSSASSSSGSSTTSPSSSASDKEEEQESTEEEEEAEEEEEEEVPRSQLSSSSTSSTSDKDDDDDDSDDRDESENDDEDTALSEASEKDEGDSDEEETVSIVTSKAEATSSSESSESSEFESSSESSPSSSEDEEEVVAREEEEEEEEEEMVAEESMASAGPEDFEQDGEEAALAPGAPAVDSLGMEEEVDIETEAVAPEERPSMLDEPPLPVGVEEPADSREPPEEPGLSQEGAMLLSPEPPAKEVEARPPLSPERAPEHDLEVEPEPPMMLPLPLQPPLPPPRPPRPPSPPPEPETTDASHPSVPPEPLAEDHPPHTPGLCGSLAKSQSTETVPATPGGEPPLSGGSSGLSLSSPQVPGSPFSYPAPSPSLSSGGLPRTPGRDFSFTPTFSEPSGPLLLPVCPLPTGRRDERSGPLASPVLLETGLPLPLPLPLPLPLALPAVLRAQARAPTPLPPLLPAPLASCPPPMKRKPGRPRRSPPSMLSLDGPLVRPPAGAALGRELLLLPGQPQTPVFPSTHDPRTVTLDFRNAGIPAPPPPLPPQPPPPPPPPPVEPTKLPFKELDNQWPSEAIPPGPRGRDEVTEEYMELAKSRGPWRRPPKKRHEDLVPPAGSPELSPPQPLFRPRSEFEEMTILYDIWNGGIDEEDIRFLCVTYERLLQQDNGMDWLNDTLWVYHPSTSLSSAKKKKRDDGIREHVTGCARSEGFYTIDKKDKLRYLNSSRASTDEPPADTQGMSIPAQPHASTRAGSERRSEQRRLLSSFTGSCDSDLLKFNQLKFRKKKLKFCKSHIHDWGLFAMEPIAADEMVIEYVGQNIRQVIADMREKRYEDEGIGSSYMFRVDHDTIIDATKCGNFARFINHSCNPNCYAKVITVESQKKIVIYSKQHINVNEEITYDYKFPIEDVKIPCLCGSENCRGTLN
SET1b Complex, sequence (Q9C005 whole entry, further chain): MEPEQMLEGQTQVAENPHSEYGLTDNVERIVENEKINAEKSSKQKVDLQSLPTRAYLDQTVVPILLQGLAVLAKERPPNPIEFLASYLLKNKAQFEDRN
PRMT6, sequence (Q96LA8 whole entry): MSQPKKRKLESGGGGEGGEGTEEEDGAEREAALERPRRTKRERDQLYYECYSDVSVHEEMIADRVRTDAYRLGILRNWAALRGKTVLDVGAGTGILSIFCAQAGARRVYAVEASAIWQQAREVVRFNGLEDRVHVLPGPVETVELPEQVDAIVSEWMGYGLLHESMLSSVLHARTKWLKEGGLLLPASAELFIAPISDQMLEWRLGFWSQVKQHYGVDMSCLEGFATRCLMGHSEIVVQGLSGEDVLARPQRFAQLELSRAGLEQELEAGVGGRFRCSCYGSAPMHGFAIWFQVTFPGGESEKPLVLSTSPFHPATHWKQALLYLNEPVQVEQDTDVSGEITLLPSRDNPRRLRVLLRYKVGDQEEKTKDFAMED
DNMT3a, sequence (Q9Y6K1 whole entry, looked up): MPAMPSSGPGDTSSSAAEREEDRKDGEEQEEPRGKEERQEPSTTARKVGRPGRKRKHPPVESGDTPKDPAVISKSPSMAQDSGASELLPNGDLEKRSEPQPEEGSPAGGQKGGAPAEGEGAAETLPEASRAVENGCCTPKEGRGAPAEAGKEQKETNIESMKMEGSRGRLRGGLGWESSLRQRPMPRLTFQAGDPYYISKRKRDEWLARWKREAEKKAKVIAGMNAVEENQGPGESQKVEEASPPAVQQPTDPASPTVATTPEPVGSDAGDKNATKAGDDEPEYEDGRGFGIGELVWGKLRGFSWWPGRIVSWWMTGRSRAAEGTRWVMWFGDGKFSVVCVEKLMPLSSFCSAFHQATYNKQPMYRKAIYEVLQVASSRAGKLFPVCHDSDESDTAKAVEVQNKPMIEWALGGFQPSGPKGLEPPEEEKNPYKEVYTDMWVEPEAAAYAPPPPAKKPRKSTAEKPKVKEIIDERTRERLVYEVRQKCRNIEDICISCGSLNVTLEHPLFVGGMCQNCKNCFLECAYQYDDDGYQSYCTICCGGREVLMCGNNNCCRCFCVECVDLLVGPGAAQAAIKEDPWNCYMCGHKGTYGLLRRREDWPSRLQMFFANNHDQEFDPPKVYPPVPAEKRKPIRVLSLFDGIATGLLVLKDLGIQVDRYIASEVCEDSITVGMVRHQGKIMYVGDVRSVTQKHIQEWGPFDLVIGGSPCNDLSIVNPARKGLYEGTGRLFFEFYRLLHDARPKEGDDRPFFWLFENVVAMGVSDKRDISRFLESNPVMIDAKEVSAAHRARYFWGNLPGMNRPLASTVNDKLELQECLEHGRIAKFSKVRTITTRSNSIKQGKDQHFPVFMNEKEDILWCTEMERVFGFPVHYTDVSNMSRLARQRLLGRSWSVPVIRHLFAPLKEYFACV

**Q.** Which remaining activity at 20 µM (SMYD2; [1]) does the source give for `CN1C(=O)[C@@]23C[C@](C)(C#N)[C@H](c4ccc5c(c4)OCO5)N2C(=O)[C@]1(C)SS3` (racemic) [ETP69, Rac-(3S,6S,7S,8aS)-6-(benzo[d][1,3]dioxol-5-yl)-2,3,7-trimethyl-1,4-dioxohexahydro-6H-3,8a-epidithiopyrrolo[1,2-a]pyrazine-7-carbonitrile] here?
**A.** The remaining activity at 20 µM was 4.23%.

**Q.** And the remaining activity at 20 µM (SMYD2; [2])?
**A.** Its remaining activity at 20 µM is 4.97%.

**Q.** What about the “inhibition relative to DMSO controls” value (SMYD2; summary of Table 1) of the same molecule?
**A.** The value was “at least 7500”.

**Q.** What about the remaining activity at 20 µM (SET8; [1]) of the same molecule?
**A.** Its remaining activity at 20 µM is 92.3%.

**Q.** What about the remaining activity at 20 µM (SET8; [2]) of the same molecule?
**A.** The remaining activity at 20 µM was 92.6%.

**Q.** And the “Enzyme % Activity (relative to DMSO controls) Data 1” value (DNMT3a)?
**A.** Its value is 76.81%.

**Q.** And the “Enzyme % Activity (relative to DMSO controls) Data 2” value (DNMT3a)?
**A.** Its value is 78.12%.

**Q.** What about the remaining activity at 20 µM (PRMT6; [1]) of the same molecule?
**A.** The remaining activity at 20 µM was 128%.

**Q.** And the remaining activity at 20 µM (PRMT6; [2])?
**A.** Its remaining activity at 20 µM is 129%.

**Q.** And the remaining activity at 20 µM (SET1b Complex; [1])?
**A.** The remaining activity at 20 µM was 0.6%.

**Q.** What about the remaining activity at 20 µM (SET1b Complex; [2]) of the same molecule?
**A.** The remaining activity at 20 µM was 0.47%.

**Q.** What about the “inhibition relative to DMSO controls” value (SET1b Complex; summary of Table 1) of the same molecule?
**A.** Its value is “at least 7500”.

**Q.** What about the remaining activity at 20 µM (DNMT3b/3L; [1]) of the same molecule?
**A.** Its remaining activity at 20 µM is 113%.

**Q.** And the remaining activity at 20 µM (DNMT3b/3L; [2])?
**A.** The remaining activity at 20 µM was 111%.

**Q.** And the “Enzyme % Activity (relative to DMSO controls) Data 1” value (NSD3; [3])?
**A.** The value was 10.33%.

**Q.** And the “Enzyme % Activity (relative to DMSO controls) Data 2” value (NSD3; [3])?
**A.** The value was 10.21%.

**Q.** And the “inhibition relative to DMSO controls” value (NSD3; summary of Table 1)?
**A.** The value was “at least 7500”.

**Q.** What about the “Enzyme % Activity (relative to DMSO controls) Data 1” value (NSD1; [3]) of the same molecule?
**A.** The value was 34.29%.

**Q.** What about the “Enzyme % Activity (relative to DMSO controls) Data 2” value (NSD1; [3]) of the same molecule?
**A.** Its value is 36.14%.

**Q.** And the “inhibition relative to DMSO controls” value (NSD1; summary of Table 1)?
**A.** The value was “at least 7500”.

**Q.** What about the 6E10 (6E10) of the same molecule?
**A.** Its 6E10 is “significant decrease”.

**Q.** And the “expression of PSD95 irradiance” value (PSD95)?
**A.** Its value is “increased”.

— patent publication US20260207585A1, “METHODS AND COMPOSITIONS FOR THE TREATMENT OF PARKINSON'S DISEASE, HUNTINGTON'S DISEASE, AMYOTROPHIC LATERAL SCLEROSIS, AND LEARNING DISORDERS” (Cedars-Sinai Medical Center, priority 2022, published 2026)
